Laboratory results from article PMC11784013, “Potassium molybdate blocks APN-dependent coronavirus entry by degrading receptor via PIK3C3-mediated autophagy” (Journal of Virology, 2024).

Tests used:
[1] = system: TGEV Miller; assay: TGEV infection of porcine intestinal organoids (monolayer, apical-out); type: cell-based, transmissible gastroenteritis virus; settings: RT-qPCR, TCID50, western blot
Protocol: Fig 2 PM restricts TGEV and PRCV infection in porcine intestinal organoids. (A) Intestinal organoids cultured in 96-well plate were incubated with different concentrations of PM for 24 h, which was tested by Cell Counting Kit 8. (B and C) The intestinal organoids monolayer was treated with indicated PM and infected with TGEV Miller (0.1 MOI) for 24 h, which was measured by IFA (B), scale bar: 50 µm, RT-qPCR, TCID50, and western blot (C). (D) Apical-out intestinal organoids were treated with indicated PM and infected TGEV Miller (1 MOI) for 48 h, which was determined by RT-qPCR, TCID50, and western blot. (E and F) The intestinal organoids monolayer was treated with different concentrations of PM and infected with PRCV for 24 h, which was determined by IFA (E), scale bar: 50 µm, RT-qPCR, TCID50, and western blot (F). (G) Apical-out intestinal organoids were treated with indicated PM and infected PRCV (1 MOI) for 48 h, which was detected by RT-qPCR, TCID50, and western blot. Results are presented as mean ± SD of data from three independent experiments. **, P ≤ 0.01; ***, P ≤ 0.001.
Porcine 3D ileum organoids coated with Matrigel for 1 week were dissociated by incubation in 5 mM cold EDTA buffer on a rotating platform for 1 h at 4°C. […]

[2] = type: in vivo; settings: piglets, oral PM 100 mg/kg
Protocol: Neonatal pigs spontaneously delivered from sows were confirmed to be negative for TGEV by RT-qPCR and enzyme-linked immunosorbent assay. For the cytotoxicity and pharmacokinetic parameters of the PM, three piglets were orally administered PM (100 mg/kg), and the serum was collected by venipuncture at 0, 1, 2, 4, 6, 8, 10, 12, 16, and 24 h after oral administration of PM for cytotoxicity assays and pharmacokinetic parameter determination. For antiviral animal experiments, piglets were randomly separated into four groups: the mock group ([3]), TGEV group ([3]), TGEV-PM-therapy group ([3]), and TGEV-PM-prevention group ([3]). For the TGEV group, neonatal pigs were orally administered 1.245 × 10^8 PFU TGEV Miller for 24 h. In addition, piglets in the TGEV-PM therapy group were orally infected with 1.245 × 10^8 PFU TGEV Miller and then treated with PM (100 mg/kg). For the TGEV-PM-prevention group, three neonatal pigs were orally pretreated with PM (100 mg/kg) for 24 h and subsequently inoculated with 1.245 × 10^8 PFU TGEV Miller for 24 h. The body weights of all piglets were recorded, and anal swabs were collected every 12 h. At 24 hpi, all pigs were euthanized, and intestinal tissues were collected for RT-qPCR, western blot, IFA, and pathological examination. All animals were handled in strict accordance with good animal practice according to the Animal Ethics Procedures and Guidelines of the People’s Republic of China, and the study was approved by The Animal Administration and Ethics Committee of Lanzhou Veterinary Research Institute, Chinese Academy of Agricultural Sciences (Permit No. LVRIAEC-2020-030).
Fig. S9. Cytotoxicity assay and t1/2 detection of PM in piglets. (A) The serum of piglets orally administered PM were collected at 1, 2, 4, 6, 8, 10, 12, 16 and 24 hours respectively and AST, CK and CREA level in those sera were measured by biochemical parameters. (B) PM concentrations at indicated times in piglets were determined by ICP-MS. Results are presented as mean ± SD of data from three independent experiments ns, no significant.

[K+].[K+].[O]=[Mo](=[O])([O-])[O-] [PM, potassium molybdate]
TGEV infection in intestinal organoid monolayer ([1]; TGEV Miller 0.1 MOI, 24 h, IFA, dose-dependent): significantly inhibited TGEV infection | TGEV infection in apical-out organoids ([1]; TGEV Miller 1 MOI, 48 h): markedly inhibited TGEV infection | t1/2 [2]: approximately 12 h | AUC(0-t) ([2]; serum, mean ± SD): 975.253 ± 33.380 µg·h/mL | AUC(0-∞) ([2]; serum, mean ± SD): 1,341.054 ± 21.475 mg/L*h | CLz/F ([2]; serum, mean ± SD): 1.23 ± 0.017 mL/min/kg | Cmax ([2]; serum, mean ± SD): 62.645 ± 0.677 µg/mL | MRT(0-t) ([2]; serum, mean ± SD): 10.735 ± 0.155 h | MRT(0-∞) ([2]; serum, mean ± SD): 19.027 ± 1.388 h | Tmax ([2]; serum, mean ± SD): 7.333 ± 2.309 h | Vz/F ([2]; serum, mean ± SD): 1.267 ± 0.093 L/kg | t1/2z ([2]; serum, mean ± SD): 11.784 ± 0.954 h
